Reference: patent US8809341B2, “2,4-pyrimidinediamine compounds and uses as anti-proliferative agents” (Rigel Pharmaceuticals, Inc., priority 2003, dated 2014)

Tests used:
[1] = system: A549 cells; experiment: in vitro antiproliferation assay, A549 (lung); assay type: cell-based
Summary of the method: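 IC50 values came from standard antiproliferation testing in cultured tumour cells; the A549 and H1299 lines are of lung origin.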

[2] = system: H1299 cells; experiment: in vitro antiproliferation assay, H1299 (lung); assay type: cell-based
Protocol: The IC50 values of various compounds against a various different tumor cell lines were determined using standard in vitro antiproliferation assays. The tumor cell lines tested were as follows: A549 (lung); H1299 (lung), ACHN (kidney/p53 wt), CAKI (renal cell carcinoma), NCI-H460 (lung); HCT116 (colon/p53w0; HELA (cervix/p53 wt), HUH7 (liver/p53 wt), HUVEC (primary endothelial), LNCAP (prostate), HT-29 (colon); MCF-7 (breast); MCF-7 (breast/ER positive), MDA MB435S (breast); MDA MB231 (breast/ER negative), DU145 (prostate); BxPC-3 (pancreatic); SKOV-3 (ovarian); HepG2 (hepatic), NDHF primary normal human dermal fibroblast), SKMEL28 (breast/p53mut), SKMEL5 (breast/p53 wt), U20S (bone) and PC3 (prostate). […] A blank indicates the specified compound was not tested against the specified cell line.

[3] = Table 5, in vitro antiproliferation, A549 (lung) cells
[4] = Table 5, in vitro antiproliferation, H1299 (lung) cells
[5] = IC50 class against A549 (lung) tumor cells
[6] = IC50 class against H1299 (lung) tumor cells
[7] = Table 7, in vitro antiproliferation, A549 (lung) cells
[8] = Table 7, in vitro antiproliferation, H1299 (lung) cells

Structure (SMILES) | IC50 [1, 3] | IC50 [2, 4] | IC50 [1, 5] | IC50 [2, 6] | other results
COc1cc(Nc2ncc(F)c(Nc3ccc4c(c3)OC(F)(F)O4)n2)cc(C(F)(F)F)c1 [compound 567] | ≤ 20 µM | ≤ 20 µM |  |  | 
Cc1cc(Nc2ncc(F)c(Nc3ccc4c(c3)OC(F)(F)O4)n2)cc(C(F)(F)F)c1 [compound 568] | > 20 µM | ≤ 20 µM |  |  | 
CNC(=O)COc1c(C)cc(Nc2ncc(F)c(Nc3ccc4c(c3)OCCO4)n2)cc1C [compound 569] | ≤ 20 µM | ≤ 20 µM |  |  | 
CNC(=O)COc1c(C)cc(Nc2ncc(F)c(Nc3ccc4c(c3)OCO4)n2)cc1C [compound 570] | ≤ 20 µM | ≤ 20 µM |  |  | 
Fc1cnc(Nc2cccc(-c3ncco3)c2)nc1Nc1ccc2c(c1)OC(F)(F)C(F)(F)O2 [compound 571] | ≤ 20 µM | ≤ 20 µM |  |  | 
CN(c1ccc2c(c1)OC(F)(F)C(F)(F)O2)c1nc(Nc2cccc(-c3ncco3)c2)ncc1F [compound 572] | ≤ 20 µM | ≤ 20 µM |  |  | 
CNC(=O)COc1c(C)cc(Nc2ncc(F)c(N(C)c3ccc4c(c3)OCCO4)n2)cc1C [compound 573] | ≤ 20 µM | ≤ 20 µM |  |  | 
CNC(=O)COc1c(C)cc(Nc2ncc(F)c(N(C)c3ccc4c(c3)OC(F)(F)C(F)(F)O4)n2)cc1C [compound 574] | ≤ 20 µM | ≤ 20 µM |  |  | 
CNC(=O)COc1c(C)cc(Nc2ncc(F)c(Nc3ccc4c(c3)OC(F)(F)C(F)(F)O4)n2)cc1C [compound 575] | ≤ 20 µM | ≤ 20 µM |  |  | 
COc1cc(Nc2ncc(F)c(Nc3ccc4c(c3)NC(C)(C)CO4)n2)cc(OC)c1 [compound 588] |  |  | ≤ 20 µM | ≤ 20 µM | 
Fc1cnc(Nc2cccc(-c3ncco3)c2)nc1Nc1ccc2c(c1)NCCO2 [compound 589] |  |  | ≤ 20 µM | ≤ 20 µM | 
CC1(C)COc2ccc(Nc3nc(Nc4cccc(-c5ncco5)c4)ncc3F)cc2N1 [compound 590] |  |  | ≤ 20 µM | ≤ 20 µM | 
Fc1cnc(Nc2cccc(-c3cnco3)c2)nc1Nc1ccc2c(c1)NCCO2 [compound 591] |  |  | ≤ 20 µM | ≤ 20 µM | 
CC1(C)COc2ccc(Nc3nc(Nc4cccc(-c5cnco5)c4)ncc3F)cc2N1 [compound 592] |  |  | > 20 µM | > 20 µM | 
COc1c(C)cc(Nc2ncc(F)c(Nc3ccc4c(c3)NCC(C)(C)O4)n2)cc1Cl [compound 597] |  |  | ≤ 20 µM | ≤ 20 µM | 
CC(=O)N1CCN(c2ccc(Nc3ncc(F)c(Nc4ccc5c(n4)NCCO5)n3)cc2)CC1 [compound 603] |  |  | ≤ 20 µM | ≤ 20 µM | 
CCOC(=O)N1CCN(c2ccc(Nc3ncc(F)c(Nc4ccc5c(n4)NCCO5)n3)cc2)CC1 [compound 604] |  |  | > 20 µM | ≤ 20 µM | 
Fc1cnc(Nc2cccc(N3CCOCC3)c2)nc1Nc1ccc2c(n1)NCCO2 [compound 605] |  |  | ≤ 20 µM | ≤ 20 µM | 
CC(=O)N1CCN(c2cccc(Nc3ncc(F)c(Nc4ccc5c(n4)NCCO5)n3)c2)CC1 [compound 606] |  |  | ≤ 20 µM | ≤ 20 µM | 
CCOC(=O)N1CCN(c2cccc(Nc3ncc(F)c(Nc4ccc5c(n4)NCCO5)n3)c2)CC1 [compound 607] |  |  | ≤ 20 µM | ≤ 20 µM | 
CN1CCN(c2ccc(Nc3ncc(F)c(Nc4ccc5c(n4)NCCO5)n3)cc2)CC1 [compound 608] |  |  | ≤ 20 µM | ≤ 20 µM | 
CN1CCN(c2cccc(Nc3ncc(F)c(Nc4ccc5c(n4)NCCO5)n3)c2)CC1 [compound 609] |  |  | ≤ 20 µM | ≤ 20 µM | 
Fc1cnc(Nc2cccc(-c3ncco3)c2)nc1Nc1ccc2c(n1)NCCO2 [compound 610] |  |  | ≤ 20 µM | ≤ 20 µM | 
COc1cc(Nc2ncc(F)c(Nc3ccc4c(n3)NCCO4)n2)cc(OC)c1OC [compound 611] |  |  | ≤ 20 µM | ≤ 20 µM | 
COc1ccc(Nc2ncc(F)c(Nc3ccc4c(n3)NCCO4)n2)cc1Cl [compound 612] |  |  | > 20 µM | > 20 µM | 
CN1CCN(c2ccc(Nc3ncc(F)c(Nc4ccc5c(n4)NCCO5)n3)cc2Cl)CC1 [compound 615] |  |  | ≤ 20 µM | ≤ 20 µM | 
Cc1cc(Nc2ncc(F)c(Nc3ccc4c(n3)NCCO4)n2)ccc1N1CCN(C)CC1 [compound 616] |  |  | ≤ 20 µM | ≤ 20 µM | 
CNC(=O)c1cc2cccc(Nc3ncc(F)c(Nc4ccc5c(c4)OC(F)(F)C(F)(F)O5)n3)c2[nH]1 [compound 653] |  |  |  |  | IC50 [1, 7]: ≤ 20 µM; IC50 [2, 8]: ≤ 20 µM
CNC(=O)c1cc2cccc(Nc3ncc(F)c(Nc4ccc5c(c4)OCO5)n3)c2[nH]1 [compound 655] |  |  |  |  | IC50 [1, 7]: ≤ 20 µM; IC50 [2, 8]: ≤ 20 µM
COC(=O)c1cc2cc(Nc3ncc(F)c(Nc4cc(OC)cc(OC)c4)n3)ccc2o1 [compound 656] |  |  |  |  | IC50 [1, 7]: > 20 µM; IC50 [2, 8]: > 20 µM
